From ChEMBL document CHEMBL2176945, “Novel TEMPO-PEG-RGDs conjugates remediate tissue damage induced by acute limb ischemia/reperfusion” (2012) come the findings set out here.

Active and inactive are the calls of the source. The calls are words filed in the database; no cut-off is given here. Residues, ends and D or L forms follow the SMILES beside them. *: point of attachment. X1 = CC1(C)CC(C(=O)*)CC(C)(C)N1[O]

Assay [1] has as its system Rattus norvegicus. The assay is described as follows: Antiischemic activity in Wistar rat myocardia assessed as protection against ischemic-reperfusion-induced tightly woven network of collagen and mild edema at 20 mg/kg, ip administered 15 minutes prior to induction of ischemia followed by administered 1 hr post reperfusion by using hematoxylin-eosin stain by Light microscopy analysis. The format is functional, organism-based. Set-up: dose 20 mg/kg.

Assay [2] concerns Platelet. The assay is described as follows: Antiplatelet activity against ADP-induced platelet aggregation in rabbit plasma at 100 nM for 120 mins by aggregometeric analysis. The format is functional. As to conditions: Oryctolagus cuniculus.
The subject of assay [3] is Rattus norvegicus. The assay is described as follows: Antiischemic activity against Wistar rat ischemic-reperfusion model assessed decrease in lipid peroxidation at 20 mg/kg, ip administered 15 minutes prior to induction of ischemia followed by administered 1 hr post reperfusion. It counts as functional, organism-based. Details: dose 20 mg/kg.
Assay [4] has as its system Rattus norvegicus. The assay is described as follows: Antiischemic activity in Wistar rat myocardia assessed as protection against ischemic-reperfusion-induced tightly woven network of collagen and mild edema between fibre at 20 mg/kg, ip administered 15 minutes prior to induction of ischemia followed by administered 1 hr post reperfusion by using modified NADH stain by light microscopy analysis. It counts as functional, organism-based. Set-up: dose 20 mg/kg.

Assay [5] has as its system Rattus norvegicus. The experiment in a line: Antiischemic activity in Wistar rat myocardia assessed as protection against ischemic-reperfusion-induced pyknotic nuclei at 20 mg/kg, ip administered 15 minutes prior to induction of ischemia followed by administered 1 hr post reperfusion by using hematoxylin-eosin stain by light microscopy analysis. The format is functional, organism-based. Details: dose 20 mg/kg.

In assay [6] the test system is Rattus norvegicus. The assay is described as follows: Antiischemic activity in Wistar rat skeleton muscle assessed as protection against ischemic-reperfusion-induced ragged red fibrils formation at 20 mg/kg, ip administered 15 minutes prior to induction of ischemia followed by administered 1 hr post reperfusion by using modified NADH stain by Light microscopy analysis. The format is functional, organism-based. Details: dose 20 mg/kg. The note with it: Muscle tissue.

Assay [7] relates to Rattus norvegicus. The assay is described as follows: Antiischemic activity in Wistar rat skeleton muscle assessed as protection against ischemic-reperfusion-induced irregular distribution of oxidative metabolism enzyme at 20 mg/kg, ip administered 15 minutes prior to induction of ischemia followed by administered 1 hr post reperfusion by using NADH staining by light microscopy analysis. It counts as functional, organism-based. Details: dose 20 mg/kg. As to conditions: Muscle tissue.

Assay [8] relates to Rattus norvegicus. The experiment in a line: Antithrombotic activity in Wistar rat model assessed as reduction of wet thrombus weight at 5 umol/kg after 15 mins. It counts as functional.
For assay [9], the system named is Rattus norvegicus. The experiment in a line: Antiischemic activity in Wistar rat skeleton muscle assessed as protection against ischemic-reperfusion-induced cell necrosis at 20 mg/kg, ip administered 15 minutes prior to induction of ischemia followed by administered 1 hr post reperfusion by using hematoxylin-eosin staining by light microscopy analysis. The format is functional, organism-based. Set-up: dose 20 mg/kg. The note with it: Muscle tissue.

Assay [10] relates to Rattus norvegicus. The experiment in a line: Antiischemic activity in Wistar rat myocardia assessed as protection against ischemic-reperfusion-induced edema between wavy muscle fibre and surrounding blood vessels at 20 mg/kg, ip administered 15 minutes prior to induction of ischemia followed by administered 1 hr post reperfusion by using hematoxylin-eosin stain by light microscopy analysis. It counts as functional, organism-based. Set-up: dose 20 mg/kg.

Assay [11] has as its system Rattus norvegicus. The experiment in a line: Antiischemic activity against Wistar rat ischemic-reperfusion model assessed decrease in SOD level in plasma at 20 mg/kg, ip administered 15 minutes prior to induction of ischemia followed by administered 1 hr post reperfusion. It counts as functional, organism-based. Set-up: dose 20 mg/kg.
Assay [12] deals with Rattus norvegicus. The assay is described as follows: Antiischemic activity in Wistar rat skeleton muscle assessed as protection against ischemic-reperfusion-induced neutrophil accumulation at 20 mg/kg, ip administered 15 minutes prior to induction of ischemia followed by administered 1 hr post reperfusion by using hematoxylin-eosin staining by light microscopy analysis. It counts as functional, organism-based. Set-up: dose 20 mg/kg. The note with it: Muscle tissue.

For assay [13], the system named is Rattus norvegicus. The assay is described as follows: Antiischemic activity in Wistar rat myocardia assessed as protection against ischemic-reperfusion-induced tightly woven network of collagen and mild edema between fibre at 20 mg/kg, ip administered 15 minutes prior to induction of ischemia followed by administered 1 hr post reperfusion by using modified gomori trichome staining by light microscopy analysis. It counts as functional, organism-based. Details: dose 20 mg/kg.

The subject of assay [14] is Rattus norvegicus. The experiment in a line: Antiischemic activity in Wistar rat myocardia assessed as protection against ischemic-reperfusion-induced contraction band at 20 mg/kg, ip administered 15 minutes prior to induction of ischemia followed by administered 1 hr post reperfusion by using hematoxylin-eosin stain by light microscopy analysis. The format is functional, organism-based. Set-up: dose 20 mg/kg.

The next assay concerns Aorta. The assay is described as follows: Antioxidant activity in rat thoracic aortic strips assessed as free radical scavenging activity by measuring reversal of acetylcholine-induced relaxation. It counts as functional, tissue-based.
The subject of assay [15] is Rattus norvegicus. The assay is described as follows: Antiischemic activity in Wistar rat skeleton muscle assessed as protection against ischemic-reperfusion-induced muscle edema at 20 mg/kg, ip administered 15 minutes prior to induction of ischemia followed by administered 1 hr post reperfusion by using hematoxylin-eosin staining by light microscopy analysis. It counts as functional, organism-based. Set-up: dose 20 mg/kg. The note with it: Muscle tissue.

The test system of assay [16] is Rattus norvegicus. The assay is described as follows: Antiischemic activity in Wistar rat myocardia assessed as protection against ischemic-reperfusion-induced relaxed collagen fibre sourrounding indivisual myocardial tract at 20 mg/kg, ip administered 15 minutes prior to induction of ischemia followed by administered 1 hr post reperfusion by using modified gomori trichome stain by light microscopy analysis. The format is functional, organism-based. Details: dose 20 mg/kg.

In assay [17] the test system is Rattus norvegicus. The assay is described as follows: Antiischemic activity in Wistar rat skeleton muscle assessed as protection against ischemic-reperfusion-induced interstitial edema at 20 mg/kg, ip administered 15 minutes prior to induction of ischemia followed by administered 1 hr post reperfusion by using Gomori trichrome staining by light microscopy analysis. The format is functional, organism-based. Details: dose 20 mg/kg. The note with it: Muscle tissue.

Assay [18] concerns Rattus norvegicus. The assay is described as follows: Antiischemic activity against Wistar rat ischemic-reperfusion model assessed as wet/dry edema tissue ratio at 20 mg/kg, ip administered 15 minutes prior to induction of ischemia followed by administered 1 hr post reperfusion. The format is functional.
Assay [19] concerns Rattus norvegicus. The experiment in a line: Antiischemic activity in Wistar rat skeleton muscle assessed as protection against ischemic-reperfusion-induced membrane ruptures with dissolution of myofibrils at 20 mg/kg, ip administered 15 minutes prior to induction of ischemia followed by administered 1 hr post reperfusion by using Gomori trichrome staining by light microscopy analysis. The format is functional, organism-based. Set-up: dose 20 mg/kg. As to conditions: Muscle tissue.

The subject of assay [20] is Rattus norvegicus. The experiment in a line: Antiischemic activity against Wistar rat ischemic-reperfusion model assessed decrease in MDA level in plasma at 20 mg/kg, ip administered 15 minutes prior to induction of ischemia followed by administered 1 hr post reperfusion. Details: dose 20 mg/kg. It counts as functional, organism-based.
Assay [21] deals with Rattus norvegicus. The assay is described as follows: Antiischemic activity in Wistar rat skeleton muscle assessed as protection against ischemic-reperfusion-induced necrotic and swollen cells at 20 mg/kg, ip administered 15 minutes prior to induction of ischemia followed by administered 1 hr post reperfusion by using Gomori trichrome staining by light microscopy analysis. It counts as functional, organism-based. Set-up: dose 20 mg/kg. As to conditions: Muscle tissue.

The test system of assay [22] is Platelet. The experiment in a line: Antiplatelet activity against PAF-induced platelet aggregation in rabbit plasma at 100 nM for 120 mins by aggregometeric analysis. The format is functional. The note with it: Oryctolagus cuniculus.
Assay [23] has as its system Rattus norvegicus. The assay is described as follows: Antithrombotic activity in Wistar rat model assessed as reduction of dry thrombus weight at 5 umol/kg after 15 mins. The format is functional, organism-based.

Regarding `CC1(C)CC(C(=O)NCCOCCOCCOCCOCCOCCOCCOCCNC(=O)COCC(=O)N[C@@H](CCCNC(=N)N)C(=O)NCC(=O)N[C@@H](CC(=O)O)C(=O)N[C@@H](Cc2ccccc2)C(=O)O)CC(C)(C)N1[O]`, the outcome in the assay with Rattus norvegicus [1], with Platelet [2], in the assay with Rattus norvegicus [3], in the assay with Rattus norvegicus [4], in the assay on Rattus norvegicus [5] and in the assay with Rattus norvegicus [6] was Active. In addition, the result in the assay with Rattus norvegicus [7], in the assay on Rattus norvegicus [9], in the assay with Rattus norvegicus [10], with Rattus norvegicus [11], in the assay on Rattus norvegicus [12] and in the assay on Rattus norvegicus [13] was Active. Also, the result in the assay with Rattus norvegicus [14], with Aorta, in the assay with Rattus norvegicus [15], with Rattus norvegicus [16], in the assay with Rattus norvegicus [17] and in the assay with Rattus norvegicus [19] was Active. The result in the assay with Rattus norvegicus [20], in the assay on Rattus norvegicus [21] and with Platelet [22] was Active. For the same molecule, in the assay with Rattus norvegicus [8], the Wet thrombus weight is 20.7 mg. Also, the Ratio in the assay with Rattus norvegicus [18] was determined as 3.45.
Turning to `CC(C)[C@H](NC(=O)[C@H](CC(=O)O)NC(=O)CNC(=O)[C@H](CCCNC(=N)N)NC(=O)COCC(=O)NCCOCCOCCOCCOCCOCCOCCOCCNC(=O)C1CC(C)(C)N([O])C(C)(C)C1)C(=O)O`, the result with Platelet [2], in the assay with Aorta and in the assay with Platelet [22] was Active. Besides, in the assay with Rattus norvegicus [8], the Wet thrombus weight was 24.7 mg.
As for `CC1(C)CC(C(=O)N[C@@H](CCCNC(=N)N)C(=O)NCC(=O)N[C@@H](CC(=O)O)C(=O)N[C@@H](Cc2ccccc2)C(=O)O)CC(C)(C)N1[O]` (X1-RGDF-OH), the outcome in the assay on Platelet [2], in the assay with Aorta and in the assay on Platelet [22] was Active. For the same molecule, the Activity in the assay with Rattus norvegicus [23] was 22.3 mg.
`CC1(C)CC(O)CC(C)(C)N1[O]` [TEMPOL]: the outcome in the assay with Aorta was Active. For the same molecule, the Ratio in the assay with Rattus norvegicus [18] (route intraperitoneal) worked out at 4.49.
In the case of `CC1(C)CC(C(=O)N[C@@H](CCCNC(=N)N)C(=O)NCC(=O)N[C@@H](CC(=O)O)C(=O)N[C@@H](CO)C(=O)O)CC(C)(C)N1[O]` (X1-RGDS-OH), the result in the assay on Platelet [2], with Aorta and in the assay on Platelet [22] was Active. In addition, the Activity in the assay with Rattus norvegicus [23] amounted to 25.9 mg.
Regarding `CC(C)[C@H](NC(=O)[C@H](CC(=O)O)NC(=O)CNC(=O)[C@H](CCCNC(=N)N)NC(=O)C1CC(C)(C)N([O])C(C)(C)C1)C(=O)O` (X1-RGDV-OH), the result in the assay on Platelet [2], in the assay with Aorta and in the assay with Platelet [22] was Active. Also, the Activity in the assay with Rattus norvegicus [23] was 25.1 mg.
On to `CC1(C)CC(C(=O)NCCOCCOCCOCCOCCOCCOCCOCCNC(=O)COCC(=O)N[C@@H](CCCNC(=N)N)C(=O)NCC(=O)N[C@@H](CC(=O)O)C(=O)N[C@@H](CO)C(=O)O)CC(C)(C)N1[O]`, for which the result in the assay on Platelet [2], in the assay with Aorta and in the assay on Platelet [22] was Active. Further, the Wet thrombus weight in the assay with Rattus norvegicus [8] was determined as 23.6 mg.
Turning to `CC(=O)Oc1ccccc1C(=O)O` [ASPIRIN], the Activity in the assay with Rattus norvegicus [8] stood at 27.6 mg.
